Data: ChEMBL document CHEMBL4390683, “Design, synthesis, and evaluation of α-galactopyranosylceramide mimics promoting Th2 cytokines production” (2019)

Tests used:
Format in all cases: functional
Mus musculus [1] = assay: Induction of serum IFNgamma production in C57BL/6 mouse assessed as serum IFNgamma level at 100 ug/kg, ip and measured for 48 hrs by AUC method
Mus musculus [2] = assay: Induction of serum IFNgamma production in C57BL/6 mouse at 100 ug/kg, ip and measured for 48 hrs by AUC method relative to KRN7000
Mus musculus [3] = assay: Induction of serum IL-4 production in C57BL/6 mouse at 100 ug/kg, ip and measured for 48 hrs by AUC method relative to KRN7000
Mus musculus [4] = assay: Ratio of induction activity for IL-4 production in C57BL/6 mouse at 100 ug/kg, ip after 48 hrs by AUC method to induction activity for IFN-gamma production in C57BL/6 mouse at 100 ug/kg, ip after 48 hrs by AUC method
Mus musculus [5] = assay: Induction of serum IL-4 production in C57BL/6 mouse assessed as serum IL-4 level at 100 ug/kg, ip and measured for 48 hrs by peak value method relative to KRN7000
Mus musculus [6] = assay: Induction of serum IFNgamma production in C57BL/6 mouse assessed as serum IFNgamma level at 100 ug/kg, ip and measured for 48 hrs by peak value method
Mus musculus [7] = assay: Induction of serum IFNgamma production in C57BL/6 mouse assessed as serum IFNgamma level at 100 ug/kg, ip and measured for 48 hrs by peak value method relative to KRN7000
Mus musculus [8] = assay: Ratio of induction activity for IL-4 production in C57BL/6 mouse at 100 ug/kg, ip after 48 hrs by peak value method to induction activity for IFN-gamma production in C57BL/6 mouse at 100 ug/kg, ip after 48 hrs by peak value method
Mus musculus [9] = assay: Induction of serum IL-4 production in C57BL/6 mouse assessed as serum IL-4 level at 100 ug/kg, ip and measured for 48 hrs by AUC method
Mus musculus [10] = assay: Induction of serum IL-4 production in C57BL/6 mouse assessed as serum IL-4 level at 100 ug/kg, ip and measured for 48 hrs by peak value method; parameters: unit not given here

CCCCCCCCCCCCCCCCCCCCCCCC(=O)N[C@@H](CO[C@H]1O[C@H](CO)[C@H](O)[C@H](O)[C@H]1O)[C@H](O)[C@H](O)CCCCC
AUC (Mus musculus [1]): 6780 pg·h/mL | Activity (Mus musculus [2]): 39% | Activity (Mus musculus [3]): 251% | Ratio (Mus musculus [4]): 6.45 | Activity (Mus musculus [5]): 244% | Activity (Mus musculus [6]): 336 pg/mL | Activity (Mus musculus [7]): 50% | Ratio (Mus musculus [8]): 4.85

CCCCCCCCCCCCCCCCCCCCCCCC(=O)N[C@@H](CO[C@H]1O[C@H](CNC(=O)[C@@H](N)CCC(=O)O)[C@H](O)[C@H](O)[C@H]1O)[C@H](O)[C@H](O)CCCCC
AUC (Mus musculus [1]): 3520 pg·h/mL | Activity (Mus musculus [9]): 2043.36 pg·h/mL | Activity (Mus musculus [2]): 20% | Activity (Mus musculus [3]): 153% | Ratio (Mus musculus [4]): 7.59 | Activity (Mus musculus [10]): 303.26 | Activity (Mus musculus [5]): 108% | Activity (Mus musculus [6]): 241 pg/mL | Activity (Mus musculus [7]): 36% | Ratio (Mus musculus [8]): 2.99

CCCCCCCCCCCCCCCCCCCCCCCCCC(=O)N[C@@H](CO[C@H]1O[C@H](CO)[C@H](O)[C@H](O)[C@H]1O)[C@H](O)[C@H](O)CCCCCCCCCCCCCC [RGI-7000]
AUC (Mus musculus [1]): 17400 pg·h/mL | Activity (Mus musculus [9]): 1331 pg·h/mL | Ratio (Mus musculus [4]): 1 | Activity (Mus musculus [10]): 280 | Activity (Mus musculus [6]): 666 pg/mL | Ratio (Mus musculus [8]): 1

CCCCCCCCCCCCCCCCCCCCCCCC(=O)N[C@@H](CO[C@H]1O[C@H](CNC(=O)CCc2ccc(O)cc2)[C@H](O)[C@H](O)[C@H]1O)[C@H](O)[C@H](O)CCCCC
AUC (Mus musculus [1]): 4380 pg·h/mL | Activity (Mus musculus [9]): 3120.95 pg·h/mL | Activity (Mus musculus [2]): 25% | Activity (Mus musculus [3]): 234% | Ratio (Mus musculus [4]): 9.3 | Activity (Mus musculus [10]): 657.75 | Activity (Mus musculus [5]): 235% | Activity (Mus musculus [6]): 169 pg/mL | Activity (Mus musculus [7]): 25% | Ratio (Mus musculus [8]): 9.28
